pIC50: −log10 of the molar value. Where two headings read alike, the source gives them in different places.
Columns and labels:
Assay type in all cases: cell-based
PLK1 = target: T1, PLK1 (Homo sapiens, UniProt P53350); assay: Luciferase assay for PLK1 in HeLa LgBit (Plk1-HiBit KI) cell line; settings: 300 nM compound, luminescence after 9 hours
T1 construct: endogenous in cells; host or cells: HeLa LgBit (Plk1-HiBit KI): HeLa stably expressing LgBit, with a CRISPR/Cas9 knock-in of HiBit at the endogenous PLK1 locus
T1 sequence (P53350 whole entry): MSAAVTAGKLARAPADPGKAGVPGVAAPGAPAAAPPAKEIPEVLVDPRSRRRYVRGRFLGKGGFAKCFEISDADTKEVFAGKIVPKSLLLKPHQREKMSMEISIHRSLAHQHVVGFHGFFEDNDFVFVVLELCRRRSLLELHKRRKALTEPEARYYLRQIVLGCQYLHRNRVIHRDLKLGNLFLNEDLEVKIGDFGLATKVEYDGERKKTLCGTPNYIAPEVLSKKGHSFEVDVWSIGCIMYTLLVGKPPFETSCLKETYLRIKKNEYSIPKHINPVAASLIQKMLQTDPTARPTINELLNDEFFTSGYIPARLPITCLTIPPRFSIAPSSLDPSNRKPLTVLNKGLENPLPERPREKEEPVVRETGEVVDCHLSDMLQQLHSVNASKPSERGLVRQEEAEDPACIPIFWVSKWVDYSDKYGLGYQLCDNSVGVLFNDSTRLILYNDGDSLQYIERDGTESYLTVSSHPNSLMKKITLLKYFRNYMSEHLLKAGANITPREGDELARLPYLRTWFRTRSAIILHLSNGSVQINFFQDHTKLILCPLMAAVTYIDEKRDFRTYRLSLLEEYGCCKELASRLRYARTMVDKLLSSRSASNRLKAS
How it was run: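 Luminescence, followed in real time after adding compound at 300 nM and Endurazine substrate, is reported relative to DMSO-treated wells. Cells are a HeLa LgBit line with a Plk1-HiBit knock-in, synchronized by 2 mM thymidine for 24 h, released, and cultured 18 h before treatment.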

MRC-5 cell line = assay: Cell viability assay for MRC-5 cell line (EZ-Cytox); settings: Homo sapiens, MRC5, 120 h, read-out: Activity: IC50 value of Exemplary Compound to MRC-5 cell line
Description: 4. Cell Viability Assay for MRC-5 Cell Line
(1) Culture of MRC-5 Cell Line
Passage of cultured cells was maintained within P15.
(2) Treatment of Compounds of the Present Invention
Then, it was cultured in 37° C.
(3) Cytotoxicity Experiment
CO2 incubator for 4 hours.

NCI-H526 cell line = assay: Cell viability assay for H526 cell (EZ-Cytox); settings: Homo sapiens, NCI-H526, 120 h; H526 cells, 5 days, 3000 nM to 0.46 nM
How it was run: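 Read-out was EZ-Cytox colorimetric absorbance at 450 nm, taken after brief plate shaking, with IC50 derived. Before reading, H526 cells had been cultured with test compound for 5 days.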

[1] = MRC-5 normal cell line, 5 days, 10000 nM to 1.52 nM, N.D. = no cytotoxicity until 10 μM

Row | Activity: ratio of the luminescense value of each Exemplary Compound treatment group to DMSO treatment group (PLK1) | SMILES | pIC50 (MRC-5 cell line; [1]) | pIC50 (NCI-H526 cell line) | pIC50 (MRC-5 cell line)
1 | ++ (++<0.6) | C=C[C@@]1(F)CN(C2CCCC2)c2nc(Nc3ccc(C(=O)NC4CCN(C(=O)CCN5CCN(c6cccc7c6C(=O)N(C6CCC(=O)NC6=O)C7=O)CC5)CC4)cc3OC)ncc2N(C)C1=O (single isomer, unassigned) [Compound 108] | < 5.00 | > 7.00 | 
2 | ++ (++<0.6) | COc1cc(C(=O)NC2CCN(CC3CN(c4cc5c(cc4F)C(=O)N(C4CCC(=O)NC4=O)C5=O)C3)CC2)ccc1Nc1ncc2c(n1)N(C(C)C)CC(F)(F)C(=O)N2C (stereo not drawn) [Compound 162, 4-((7,7-difluoro-9-isopropyl-5-methyl-6-oxo-6,7,8,9-tetrahydro-5H-pyrimido[4,5-b][1,4]diazepin-2-yl)amino)-N-(1-((1-(2-(2,6-dioxopiperidin-3-yl)-6-fluoro-1,3-dioxoisoindolin-5-yl)azetidin-3-yl)methyl)piperidin-4-yl)-3-methoxybenzamide] | < 5.00 | > 7.00 | 
3 | ++ (++<0.6) | COc1cc(C(=O)NC2CCN(C(=O)CC3CCN(c4cccc5c4C(=O)N(C4CCC(=O)NC4=O)C5=O)C3)CC2)c(F)cc1Nc1ncc2c(n1)N(C1CCCC1)CC(F)(F)C(=O)N2C (stereo not drawn) [Compound 44, 4-((9-cyclopentyl-7,7-difluoro-5-methyl-6-oxo-6,7,8,9-tetrahydro-5H-pyrimido[4,5-b][1,4]diazepin-2-yl)amino)-N-(1-(2-(1-(2-(2,6-dioxopiperidin-3-yl)-1,3-dioxoisoindolin-4-yl)pyrrolidin-3-yl)acetyl)piperidin-4-yl)-2-fluoro-5-methoxybenzamide] | < 5.00 | > 7.00 | 
4 | ++ (++<0.6) | COc1cc(C(=O)NC2CC(N(C)CCC3CCN(c4cccc5c4C(=O)N(C4CCC(=O)NC4=O)C5=O)CC3)C2)ccc1Nc1ncc2c(n1)N(C1CCCC1)CC(F)(F)C(=O)N2C (stereo not drawn) [Compound 107, 4-((9-cyclopentyl-7,7-difluoro-5-methyl-6-oxo-6,7,8,9-tetrahydro-5H-pyrimido[4,5-b][1,4]diazepin-2-yl)amino)-N-(3-((2-(1-(2-(2,6-dioxopiperidin-3-yl)-1,3-dioxoisoindolin-4-yl)piperidin-4-yl)ethyl)(methyl)amino)cyclobutyl)-3-methoxybenzamide] | < 5.00 | > 7.00 | 

More lines, now with the values behind:

Row | SMILES | Activity: ratio of the luminescense value of each Exemplary Compound treatment group to DMSO treatment group (PLK1) | pIC50 (MRC-5 cell line; [1]) | pIC50 (NCI-H526 cell line) | pIC50 (MRC-5 cell line)
5 | COc1cc(C(=O)NC2CCN(CCC3CCCN(c4cccc5c4C(=O)N(C4CCC(=O)NC4=O)C5=O)C3)CC2)ccc1Nc1ncc2c(n1)N(C1CCCC1)CC(F)(F)C(=O)N2C (stereo not drawn) [Compound 55, 4-((9-cyclopentyl-7,7-difluoro-5-methyl-6-oxo-6,7,8,9-tetrahydro-5H-pyrimido[4,5-b][1,4]diazepin-2-yl)amino)-N-(1-(2-(1-(2-(2,6-dioxopiperidin-3-yl)-1,3-dioxoisoindolin-4-yl)piperidin-3-yl)ethyl)piperidin-4-yl)-3-methoxybenzamide] | ++ (++<0.6) | 5.42 | > 7.00 | 
6 | COc1cc(C(=O)NC2CCN(C(=O)CCN3CCN(c4cccc5c4C(=O)N(C4CCC(=O)NC4=O)C5=O)CC3)CC2)ccc1Nc1ncc2c(n1)N(C1CCCC1)CC(C)(C)C(=O)N2C (stereo not drawn) [Compound 121, 4-((9-cyclopentyl-5,7,7-trimethyl-6-oxo-6,7,8,9-tetrahydro-5H-pyrimido[4,5-b][1,4]diazepin-2-yl)amino)-N-(1-(3-(4-(2-(2,6-dioxopiperidin-3-yl)-1,3-dioxoisoindolin-4-yl)piperazin-1-yl)propanoyl)piperidin-4-yl)-3-methoxybenzamide] | ++ (++<0.6) | < 5.00 | > 6.70 | 
7 | COc1cc(C(=O)NC2CCN(C(=O)CCN3CCN(c4ccc5c(c4)CN(C4CCC(=O)NC4=O)C5=O)CC3)CC2)ccc1Nc1ncc2c(n1)N(C1CCCC1)CC(F)(F)C(=O)N2C (stereo not drawn) [Compound 82, 4-((9-cyclopentyl-7,7-difluoro-5-methyl-6-oxo-6,7,8,9-tetrahydro-5H-pyrimido[4,5-b][1,4]diazepin-2-yl)amino)-N-(1-(3-(4-(2-(2,6-dioxopiperidin-3-yl)-1-oxoisoindolin-5-yl)piperazin-1-yl)propanoyl)piperidin-4-yl)-3-methoxybenzamide] | ++ (++<0.6) | < 5.00 | > 7.52 | 
8 | COc1cc(C(=O)NC2CCN(C(=O)CCN3CCN(c4ccc5c(c4)CN(C4CCC(=O)NC4=O)C5=O)CC3)CC2)ccc1Nc1ncc2c(n1)N(C(C)C)CC(F)(F)C(=O)N2C (stereo not drawn) [Compound 130, 4-((7,7-difluoro-9-isopropyl-5-methyl-6-oxo-6,7,8,9-tetrahydro-5H-pyrimido[4,5-b][1,4]diazepin-2-yl)amino)-N-(1-(3-(4-(2-(2,6-dioxopiperidin-3-yl)-1-oxoisoindolin-5-yl)piperazin-1-yl)propanoyl)piperidin-4-yl)-3-methoxybenzamide] | ++ (++<0.6) | < 5.00 | > 7.52 | 
9 | COc1cc(C(=O)NC2CCCN(CCCN3CCN(c4cccc5c4C(=O)N(C4CCC(=O)NC4=O)C5=O)CC3)C2)ccc1Nc1ncc2c(n1)N(C1CCCC1)CC(F)(F)C(=O)N2C (stereo not drawn) [Compound 144, 4-((9-cyclopentyl-7,7-difluoro-5-methyl-6-oxo-6,7,8,9-tetrahydro-5H-pyrimido[4,5-b][1,4]diazepin-2-yl)amino)-N-(1-(3-(4-(2-(2,6-dioxopiperidin-3-yl)-1,3-dioxoisoindolin-4-yl)piperazin-1-yl)propyl)piperidin-3-yl)-3-methoxybenzamide] | ++ (++<0.6) |  | > 7.30 | 5.39
10 | COc1cc(C(=O)NC2CCN(C(=O)CCN3CCN(c4cccc5c4C(=O)N(C4CCC(=O)NC4=O)C5=O)CC3)CC2)c(C(F)(F)F)cc1Nc1ncc2c(n1)N(C1CCCC1)CC(F)(F)C(=O)N2C (stereo not drawn) [Compound 119, 4-((9-cyclopentyl-7,7-difluoro-5-methyl-6-oxo-6,7,8,9-tetrahydro-5H-pyrimido[4,5-b][1,4]diazepin-2-yl)amino)-N-(1-(3-(4-(2-(2,6-dioxopiperidin-3-yl)-1,3-dioxoisoindolin-4-yl)piperazin-1-yl)propanoyl)piperidin-4-yl)-5-methoxy-2-(trifluoromethyl) benzamide] | ++ (++<0.6) | < 5.00 | > 6.70 | 
11 | COc1cc(C(=O)NN2CCC(N3CC4(CCN(c5cc6c(cc5F)C(=O)N(C5CCC(=O)NC5=O)C6=O)CC4)C3)CC2)c(F)cc1Nc1ncc2c(n1)N(C(C)C)CC(F)(F)C(=O)N2C (stereo not drawn) [Compound 217, 4-((7,7-difluoro-9-isopropyl-5-methyl-6-oxo-6,7,8,9-tetrahydro-5H-pyrimido[4,5-b][1,4]diazepin-2-yl)amino)-N-(4-(7-(2-(2,6-dioxopiperidin-3-yl)-6-fluoro-1,3-dioxoisoindolin-5-yl)-2,7-diazaspiro[3.5]nonan-2-yl)piperidin-1-yl)-2-fluoro-5-methoxybenzamide] | ++ (++<0.6) | 4.78 | > 6.40 | 
12 | COc1cc(C(=O)N[C@H]2CC[C@H](N(C)CCN3CCN(c4ccc5c(c4)C(=O)N(C4CCC(=O)NC4=O)C5=O)CC3)CC2)ccc1Nc1ncc2c(n1)N(C(C)C)CC(F)(F)C(=O)N2C (stereo partly drawn) [Compound 156, 4-((7,7-difluoro-9-isopropyl-5-methyl-6-oxo-6,7,8,9-tetrahydro-5H-pyrimido[4,5-b][1,4]diazepin-2-yl)amino)-N-((1r,4r)-4-((2-(4-(2-(2,6-dioxopiperidin-3-yl)-1,3-dioxoisoindolin-5-yl)piperazin-1-yl)ethyl)(methyl)amino)cyclohexyl)-3-methoxybenzamide] | ++ (++<0.6) | < 5.00 | > 7.30 | 
13 | COc1cc(C(=O)NC2CCN(CCOc3cccc4c3C(=O)N(C3CCC(=O)NC3=O)C4=O)CC2)ccc1Nc1ncc2c(n1)N(C1CCCC1)CC(F)(F)C(=O)N2C (stereo not drawn) [Compound 5, 4-((9-cyclopentyl-7,7-difluoro-5-methyl-6-oxo-6,7,8,9-tetrahydro-5H-pyrimido[4,5-b][1,4]diazepin-2-yl)amino)-N-(1-(2-((2-(2,6-dioxopiperidin-3-yl)-1,3-dioxoisoindolin-4-yl)oxy)ethyl)piperidin-4-yl)-3-methoxybenzamide] | ++ (++<0.6) | 4.70 | > 6.40 | 

— patent US20250114460A1, “NOVEL PLK1 DEGRADATION INDUCING COMPOUND” (UPPTHERA, INC., priority 2021, published 2025)
